From patent US4410516A, “1-N(αHydroxy-ω-aminoalkanoyl) derivatives of 5,3',4'-trideoxy- or 5,3', 4'-trideoxy-6'-N- methyl- or 5, 3', 4',6"-tetradeoxykannamyci B and production thereof” (Zaidan Hojin Biseibutsu Kagaku Kenkyu Kai, priority 1981, dated 1983)
Converted amounts (≈) assume the structure as drawn. Read-outs that look alike come from different tables or passages of the source.

What was measured:
[1] = test system: Pseudomonas aeruginosa No. 12; test: Minimum inhibitory concentration, serial dilution on nutrient agar; type: cell-based
[2] = test system: Salmonella enteritidis 1891; test: as above; type: cell-based; settings: Salmonella enterica
Proteus rettgeri GN466 = test: as above; type: cell-based; settings: Providencia rettgeri
[3] = test system: Klebsiella pneumoniae 22 #3038; test: as above; type: cell-based
[4] = test system: Escherichia coli K-12 LA 290 R64; test: as above; type: cell-based; settings: K12LA290R64, 18 h
Serratia 4 = test: as above; type: cell-based; settings: 37° C., 18 hours incubation
Escherichia coli W677 = test: as above; type: cell-based; settings: W677, nutrient agar, 37° C., 18 hours incubation, read-out: MIC
[5] = test system: Bacillus cereus ATCC 10702; test: as above; type: cell-based; settings: ATCC10702, nutrient agar, 37° C., 18 hours incubation, read-out: MIC
Sarcina lutea PCI 1001 = test: as above; type: cell-based; settings: Micrococcus luteus, PCI1001; nutrient agar, 37° C., 18 hours incubation; read-out: MIC
[6] = test system: Mycobacterium smegmatis ATCC 607; test: as above; type: cell-based; settings: Mycolicibacterium smegmatis
[7] = test system: Pseudomonas aeruginosa K-Ps102; test: as above; type: cell-based
[8] = test system: Pseudomonas aeruginosa H11; test: as above; type: cell-based; settings: H11, nutrient agar, 37° C., 18 hours incubation, read-out: MIC
Bacillus anthracis = test: microbe, parasite or virus in culture; type: cell-based; settings: 18 h
[9] = test system: Staphylococcus aureus Smith; test: Minimum inhibitory concentration, serial dilution on nutrient agar; type: cell-based; settings: 37° C., 18 hours incubation
Providencia Pv 16 = test: as above; type: cell-based; settings: PV16, 37° C., 18 hours incubation
[10] = test system: Shigella dysenteriae JS 11910; test: as above; type: cell-based; settings: JS11910, 18 h
[11] = test system: Staphylococcus epidermidis 109; test: as above; type: cell-based
[12] = test system: Klebsiella pneumoniae PCI 602; test: as above; type: cell-based; settings: PCI602, nutrient agar, 37° C., 18 hours incubation, read-out: MIC
[13] = test system: Escherichia coli K-12 ML 1629; test: as above; type: cell-based; settings: K12ML1629, nutrient agar, 37° C., 18 hours incubation, read-out: MIC
Escherichia coli JR255 = test: as above; type: cell-based; settings: JR255, nutrient agar, 37° C., 18 hours incubation, read-out: MIC
[14] = test system: Micrococcus flavus FDA 16; test: as above; type: cell-based; settings: FDA16, nutrient agar, 37° C., 18 hours incubation, read-out: MIC
[15] = test system: Bacillus subtilis PCI 219; test: as above; type: cell-based; settings: PCI219, 37° C., 18 hours incubation
Salmonella typhi T-63 = test: as above; type: cell-based; settings: Salmonella enterica, 18 h
[16] = test system: Shigella flexneri 4b JS11811; test: as above; type: cell-based; settings: 4BJS11811, 37° C., 18 hours incubation
Source text: (§1) The minimum inhibitory concentration (mcg/ml) of 1-N-[(S)-4-amino-2-hydroxybutyryl]-5,3',4'-trideoxykanamycin B (abbreviated as AHB-trideoxyKMB), 1-N-[(RS)-3-amino-2-hydroxypropionyl]-5,3',4'-trideoxykanamycin B (abbreviated as AHP-trideoxy-KMB) and 1-N-[(S)-4-amino-2-hydroxybutyryl]-5,3',4',6"-tetradeoxykanamycin B (abbreviated as AHB-tetradeoxyKMB) of the formula (II) according to this invention as well as of the new compound 5,3',4',6"-tetradeoxykanamycin B (abbreviated as tetradeoxyKMB) of the formula (III) according to this invention against various microorganisms were determined according to serial dilution method on a nutrient agar medium at 37° C., the estimation being made after 18 hours incubation. For comparison purpose, the minimum inhibitory concentrations of habekacin were also determined in the same manner as stated above.
(§2) The minimum inhibitory concentrations (mcg/ml) of 1-N-[(S)-4-amino-2-hydroxybutyryl]-5,3',4'-trideoxy-6'-N-methylkanamycin B (abbreviated as AHB-trideoxyMKMB), 1-N-[(RS)-3-amino-2-hydroxypropionyl]-5,3',4'-trideoxy-6'-N-methylkanamycin B (abbreviated as AHP-trideoxyMKMB) and 1-N-[(S)-5-amino-2-hydroxyvaleryl]-5,3',4'-trideoxy-6'-N-methylkanamycin B (abbreviated as AHV-trideoxyMKMB) of the formula (IV) according to this invention as well as of the new compound 5,3',4'-trideoxy-6'-N-methylkanamycin B (abbreviated as trideoxyMKMB) of the formula (V) according to this invention against various microorganisms were determined according to serial dilution method on a nutrient agar medium at 37° C., the estimation being made after 18 hours incubation. For comparison purpose, the minimum inhibitory concentrations of 1-N-[(S)-4-amino-2-hydroxybutyryl]-3',4'-dideoxykanamycin B (ie. habekacin) were also determined in the same manner as stated above.

[17] = test system: Escherichia coli K-12 ML 1630; test: as above; type: cell-based; settings: K12ML1630, 37° C., 18 hours incubation
Source text: as §1, §2

[18] = test system: Escherichia coli K-12 J5R 11-2; test: as above; type: cell-based; settings: K12J5R112, 37° C., 18 hours incubation
Source text: as §1, §2

[19] = test system: Escherichia coli K-12 C 600R/35; test: as above; type: cell-based; settings: K12C600R/35, 37° C., 18 hours incubation
Source text: as §1, §2

Shigella sonnei JS11746 = test: as above; type: cell-based; settings: 37° C., 18 hours incubation
Source text: as §1, §2

[20] = test system: Pseudomonas aeruginosa H9; test: as above; type: cell-based
[21] = Acute toxicity by intravenous injection in mice; settings: mouse, in vivo
[22] = NO.12, nutrient agar, 37° C., 18 hours incubation, read-out: MIC
[23] = ATCC607, nutrient agar, 37° C., 18 hours incubation, read-out: MIC
[24] = Staphylococcus epidermidis, 109, nutrient agar, 37° C., 18 hours incubation, read-out: MIC
[25] = KPS102, nutrient agar, 37° C., 18 hours incubation, read-out: MIC
[26] = nutrient agar, 37° C., 18 hours incubation, read-out: MIC

SMILES | MIC [4] [µg/mL] | MIC (Serratia 4) [µg/mL] | MIC (Escherichia coli W677) [µg/mL] | MIC [5] [µg/mL] | MIC (Sarcina lutea PCI 1001) [µg/mL] | MIC [8] [µg/mL] | MIC (Bacillus anthracis) [µg/mL] | MIC [9] [µg/mL] | MIC (Providencia Pv 16) [µg/mL] | MIC [10] [µg/mL] | MIC [12] [µg/mL] | MIC [13] [µg/mL] | MIC (Escherichia coli JR255) [µg/mL] | MIC [14] [µg/mL] | MIC [15] [µg/mL] | MIC (Salmonella typhi T-63) [µg/mL] | MIC [16] [µg/mL] | MIC [17] [µg/mL] | MIC [18] [µg/mL] | MIC [19] [µg/mL] | also measured
C[C@H]1O[C@H](O[C@@H]2C[C@H](O[C@H]3O[C@H](CN)CC[C@H]3N)[C@@H](N)C[C@H]2NC(=O)[C@@H](O)CCN)[C@H](O)[C@@H](N)[C@@H]1O [AHB-tetradeoxyKMB, 1-N-[(S)-4-amino-2-hydroxybutyryl]-5,3',4',6"-tetradeoxykanamycin B] | 0.78 (≈ 1.5 µM) | 25 (≈ 48 µM) | 0.78 (≈ 1.5 µM) | 0.39 (≈ 0.749 µM) | 0.78 (≈ 1.5 µM) | 12.5 (≈ 24 µM) | < 0.2 | < 0.2 | 25 (≈ 48 µM) | 1.56 (≈ 3 µM) | 0.78 (≈ 1.5 µM) | 0.78 (≈ 1.5 µM) | 0.78 (≈ 1.5 µM) | 6.25 (≈ 12 µM) | < 0.2 | 25 (≈ 48 µM) | 1.56 (≈ 3 µM) | 1.56 (≈ 3 µM) | 0.78 (≈ 1.5 µM) | 0.78 (≈ 1.5 µM) | MIC [1, 22]: 6.25 µg/mL (≈ 12 µM); MIC ([2]; 18 h): 3.13 µg/mL (≈ 6.01 µM); MIC (Proteus rettgeri GN466; GN466, 18 h): 1.56 µg/mL (≈ 3 µM); MIC ([3]; 18 h): 1.56 µg/mL (≈ 3 µM); MIC [6, 23]: < 0.2 µg/mL; MIC ([7]; KPS102, 18 h): 3.13 µg/mL (≈ 6.01 µM); MIC [11, 24]: 0.78 µg/mL (≈ 1.5 µM); MIC (Shigella sonnei JS11746): 3.13 µg/mL (≈ 6.01 µM); MIC ([20]; H9, 18 h): 3.13 µg/mL (≈ 6.01 µM); LD50 [21]: 25 to 50 mg/kg
NCC[C@H](O)C(=O)N[C@@H]1C[C@H](N)[C@@H](O[C@H]2O[C@H](CN)CC[C@H]2N)C[C@H]1O[C@H]1O[C@H](CO)[C@@H](O)[C@H](N)[C@H]1O [AHB-trideoxyKMB, 1-N-[(S)-4-amino-2-hydroxybutyryl]-5,3',4'-trideoxykanamycin B] | 0.78 (≈ 1.45 µM) | 12.5 (≈ 23.3 µM) | 0.78 (≈ 1.45 µM) | 0.78 (≈ 1.45 µM) | 0.39 (≈ 0.727 µM) | 6.25 (≈ 11.6 µM) | < 0.2 | < 0.2 | 12.5 (≈ 23.3 µM) | 3.13 (≈ 5.83 µM) | 0.78 (≈ 1.45 µM) | 1.56 (≈ 2.91 µM) | 0.39 (≈ 0.727 µM) | 1.56 (≈ 2.91 µM) | < 0.2 | 25 (≈ 46.6 µM) | 3.13 (≈ 5.83 µM) | 1.56 (≈ 2.91 µM) | 0.78 (≈ 1.45 µM) | 0.78 (≈ 1.45 µM) | MIC ([1]; NO.12, 18 h): 3.13 µg/mL (≈ 5.83 µM); MIC ([2]; 18 h): 3.13 µg/mL (≈ 5.83 µM); MIC (Proteus rettgeri GN466; GN466, 18 h): 3.13 µg/mL (≈ 5.83 µM); MIC ([3]; 18 h): 3.13 µg/mL (≈ 5.83 µM); MIC [6, 23]: 0.2 µg/mL (≈ 0.373 µM); MIC [7, 25]: 1.56 µg/mL (≈ 2.91 µM); MIC [11, 24]: 0.39 µg/mL (≈ 0.727 µM); MIC (Shigella sonnei JS11746): 3.13 µg/mL (≈ 5.83 µM); MIC ([20]; H9, 18 h): 3.13 µg/mL (≈ 5.83 µM); LD50 [21]: 25 to 50 mg/kg
CNC[C@@H]1CC[C@@H](N)[C@@H](O[C@H]2C[C@@H](O[C@H]3O[C@H](CO)[C@@H](O)[C@H](N)[C@H]3O)[C@H](N)C[C@@H]2N)O1 [TrideoxyMKMB, 5,3',4'-trideoxy-6'-N-methylkanamycin B] | 25 (≈ 55.6 µM) | 50 (≈ 111 µM) | 12.5 (≈ 27.8 µM) | 12.5 (≈ 27.8 µM) | 25 (≈ 55.6 µM) | 25 (≈ 55.6 µM) | 0.78 (≈ 1.74 µM) | 0.39 (≈ 0.868 µM) | > 100 | 50 (≈ 111 µM) | 12.5 (≈ 27.8 µM) | 25 (≈ 55.6 µM) | 100 (≈ 222 µM) | 100 (≈ 222 µM) | < 0.2 | 6.25 (≈ 13.9 µM) | 25 (≈ 55.6 µM) | 25 (≈ 55.6 µM) | 25 (≈ 55.6 µM) | 12.5 (≈ 27.8 µM) | MIC [1, 22]: 25 µg/mL (≈ 55.6 µM); MIC [2, 26]: 25 µg/mL (≈ 55.6 µM); MIC (Proteus rettgeri GN466; GN466, nutrient agar, 37° C., 18 hours incubation, read-out: MIC): 25 µg/mL (≈ 55.6 µM); MIC [3, 26]: 100 µg/mL (≈ 222 µM); MIC ([6]; ATCC607, 18 h): 6.25 µg/mL (≈ 13.9 µM); MIC [7, 25]: 25 µg/mL (≈ 55.6 µM); MIC ([11]; Staphylococcus epidermidis, 109, 18 h): 6.25 µg/mL (≈ 13.9 µM); MIC (Shigella sonnei JS11746): 25 µg/mL (≈ 55.6 µM); MIC ([20]; H9, nutrient agar, 37° C., 18 hours incubation, read-out: MIC): 25 µg/mL (≈ 55.6 µM); LD50 [21]: 50 to 100 mg/kg
